Measurements taken from the supplement of paper PMC10307832.

Columns and labels:
Assay in all cases: relative viability (nuclei count vs DMSO), 5 days (fraction); higher = more cells survive
[1] = compound: O=c1[nH]cc(F)c(=O)[nH]1 [5-Fluorouracil] + Nc1ncn([C@H]2C[C@H](O)[C@@H](CO)O2)c(=O)n1 [Decitabine] (partner 2 µM)
How it was run: (§1)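 For relative viability, nuclei counts in treated wells were divided by those in vehicle wells. Lung cancer cell lines had been pin-tool dosed in 1536-well plates the day after seeding and cultured for 5 days, then fixed and stained in one step (final 0.05% Triton X-100, 1% formaldehyde, 1 ug/ml Hoechst) and imaged at 4×. Doses were one drug alone or a fixed anchor-drug dose plus five library-drug doses (not always all listed) in √10 steps, and values are duplicate-plate medians.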

[2] = compound: CN[C@@H]1C[C@H]2O[C@@](C)([C@@H]1OC)n1c3ccccc3c3c4c(c5c6ccccc6n2c5c31)C(=O)NC4 [Staurosporine] + Nc1nc2[nH]cc(CCc3ccc(C(=O)N[C@@H](CCC(=O)O)C(=O)O)cc3)c2c(=O)[nH]1 [Pemetrexed] (partner 0.2 µM)
How it was run: as §1

Sulindac + Foretinib = compound: CC1=C(CC(=O)O)c2cc(F)ccc2/C1=C\c1ccc([S+](C)[O-])cc1 [Sulindac] + COc1cc2c(Oc3ccc(NC(=O)C4(C(=O)Nc5ccc(F)cc5)CC4)cc3F)ccnc2cc1OCCCN1CCOCC1 [Foretinib] (partner 0.25 µM)
How it was run: as §1

[3] = compound: O=c1[nH]cc(F)c(=O)[nH]1 [5-Fluorouracil] + Cc1cc(Nc2cc(N3CCN(C)CC3)nc(Sc3ccc(NC(=O)C4CC4)cc3)n2)n[nH]1 [Tozasertib] (partner 0.1 µM)
How it was run: as §1

Cell Line	relative viability ([1]; first compound 0.02 µM)	relative viability ([1]; first compound 0.2 µM)	relative viability ([1]; first compound 0.6325 µM)	relative viability ([1]; first compound 2 µM)	relative viability ([2]; first compound 0.005 µM)	relative viability ([2]; first compound 0.01581 µM)	relative viability ([2]; first compound 0.05 µM)	relative viability ([2]; first compound 0.1581 µM)	relative viability ([2]; first compound 0.5 µM)	relative viability (Sulindac + Foretinib; first compound 0.08 µM)	relative viability (Sulindac + Foretinib; first compound 0.253 µM)	relative viability (Sulindac + Foretinib; first compound 0.8 µM)	relative viability (Sulindac + Foretinib; first compound 2.53 µM)	relative viability (Sulindac + Foretinib; first compound 8 µM)	relative viability ([3]; first compound 0.02 µM)	relative viability ([3]; first compound 0.2 µM)	relative viability ([3]; first compound 0.6325 µM)	relative viability ([3]; first compound 2 µM)
SK-LU-1	0.636	0.692	0.592	0.548	0.416	0.182	0.167	0.163	0.176	0.981	0.977	0.993	0.751	0.955	0.412	0.408	0.346	0.338
NCI-H1915	0.248	0.272	0.278	0.256	0.486	0.231	0.219	0.15	0.0886	1.26	1.2	–	1.11	1.15	0.376	0.418	0.433	0.331
NCI-H650	0.313	0.312	0.326	0.288	0.64	0.257	0.235	0.23	0.228	0.926	1	0.997	0.994	1.19	0.765	0.384	0.309	0.257
NCI-H441	0.252	0.226	0.254	0.26	0.246	0.203	0.177	0.157	0.147	0.992	1.15	0.86	1	1.24	0.701	0.468	0.372	0.343
COR-L 105	0.763	0.677	0.719	0.438	0.655	0.554	0.52	0.428	0.293	0.871	0.904	1.18	0.783	1.44	0.303	0.328	0.323	0.26
NCI-H2009	0.384	0.404	0.372	0.425	0.895	0.389	0.222	0.156	0.112	1.32	1.26	1.26	1.22	1.12	0.802	0.793	0.684	0.474
NCI-H1437	0.522	0.308	0.28	0.237	0.268	0.214	0.182	0.17	0.131	1.33	1.23	1	1.28	1.42	0.34	0.259	0.191	0.139
PC-3 [JPC-3]	0.851	0.873	0.779	0.75	0.975	0.444	0.516	0.389	0.347	1.12	1.11	1.14	1.09	1.05	0.828	0.881	0.827	0.554
NCI-H1703	–	–	–	–	–	–	–	–	–	0.276	0.389	0.355	0.382	0.377	–	–	–	–
NCI-H1944	0.472	0.399	0.268	0.183	0.626	0.311	0.26	0.164	0.185	0.962	0.874	0.822	0.974	1.03	0.253	0.256	0.218	0.153
NCI-H2085	0.516	0.567	0.657	0.526	0.635	0.307	0.429	0.206	0.242	0.763	0.987	0.882	0.914	1.08	0.867	0.784	0.828	0.608
EBC-1	–	–	–	–	–	–	–	–	–	0.0937	0.0935	–	0.107	0.105	–	–	–	–
NCI-H1792	0.514	0.473	0.27	0.202	0.28	0.0706	0.0856	0.056	0.0352	–	–	–	–	–	–	–	–	–
NCI-H2347	0.587	0.618	0.441	0.407	0.36	0.321	0.32	0.329	0.291	1.08	0.562	0.645	1.26	0.807	0.606	0.425	0.303	0.292
ABC-1	1.25	0.959	0.944	0.87	–	–	–	–	–	1.02	0.96	1.02	0.867	1.33	0.163	0.184	0.171	0.195
NCI-H1563	–	–	–	–	0.543	0.39	0.522	0.45	0.41	0.98	1.02	0.912	0.89	0.99	–	–	–	–
NCI-H1299	–	–	–	–	–	–	–	–	–	1.13	1.09	1.06	1.02	1.15	–	–	–	–
A549	0.296	0.264	0.252	0.224	–	–	–	–	–	1.04	1.12	0.653	0.975	1.12	–	–	–	–
NCI-H1623	–	–	–	–	–	–	–	–	–	0.875	0.779	0.637	0.873	0.923	0.38	0.314	0.264	0.248
NCI-H2228	–	–	–	–	0.288	0.185	0.192	–	0.116	1.02	1.07	0.773	0.751	0.899	0.293	0.25	0.24	0.187
HCC-44	1.07	0.96	0.94	0.77	0.629	–	0.583	0.27	0.235	–	–	–	–	–	1.19	0.844	0.739	0.291
Calu-6	–	–	–	–	–	–	–	–	–	1.02	0.916	0.846	0.893	1.08	–	–	–	–
ChaGo-K-1	0.573	0.519	0.435	0.439	0.262	–	0.251	0.141	0.163	1.05	0.999	0.925	0.991	0.926	–	–	–	–
COR-L23	0.452	0.449	0.412	0.254	0.191	0.151	0.161	0.135	0.0959	1.18	1.03	0.88	0.982	1.26	–	–	–	–
